US20250179078A1, “INHIBITORS OF NLRP3” (PTC THERAPEUTICS, INC., priority 2022, published 2025)

Target: T1, NLRP3 (Homo sapiens, UniProt Q96P20)
T1 construct: host or cells: THP-1 cells differentiated with PMA
Assay: IL-1β Secretion Assay (NLRP3-dependent IL1β secretion in THP1 cells)
Format: cell-based
Conditions: PMA-differentiated THP-1 cells; compounds incubated 20 h; 2.5 μM Nigericin 3 h; HTRF IL-1β readout; read-out: IC50 IL-1β Inhibition
Procedure: Monocytic THP-1 cells (ATCC: TIB-202) were maintained in growth media consisting of RPMI 1640 medium (ThermoFisher, Cat #11875-085), 10% FBS (ThermoFisher) and 0.05 mM β-mercaptoethanol (ThermoFisher, Cat #21985-023), according to the provider's instructions. The cell concentration was adjusted to 7.5×10^5 cells/mL, and plated in complete growth media with a final concentration of 100 ng/mL phorbol 12-myristate 13-acetate (PMA, Sigma #P8139). Cells were seeded at 100 µL/well into a 96-well cell culture plate (ThermoFisher Cat #165305) and allowed to differentiate for 24 h in a cell culture incubator at 37° C. with 5% CO2. Cells were washed 1× with 100 ul PBS and replaced with fresh RPMI+5% FBS. Compounds were serial diluted in DMSO with 3 fold dilution for a total of 7 concentrations. Diluted compounds were added to the cells at a ratio of 1:200 and incubated for 20 h. The NLRP3 inflammasome was activated with the addition of 2.5 μM Nigericin (Sigma: Cat #SML1779-1 ml), for 3 h. After incubation, 15 μL of conditioned media was removed and assayed for levels of IL-1β using the HTRF IL-1β assay kit (Cisbio: Cat #62HIL1BPEH) as per the manufacturer's instructions.
Compounds, once produced and prepared according to the present invention, can be assessed in variety of assays to characterize their activities. For example, NLRP3-dependent IL1β secretion was evaluated in THP1 cells. IC50 values of IL1β inhibition were calculated from the plot of percentage of inhibition versus the inhibitor concentration by a logistics fit. TABLE I depict examples of compounds according to generic Formula I. Data which is <1 nM is listed as *****; data 1-10 nM is listed as ****; data 10-100 nM is listed as ***, data 100-300 nM is listed as **, data ≥300 nM is listed as *.

T1 sequence (Q96P20 whole entry): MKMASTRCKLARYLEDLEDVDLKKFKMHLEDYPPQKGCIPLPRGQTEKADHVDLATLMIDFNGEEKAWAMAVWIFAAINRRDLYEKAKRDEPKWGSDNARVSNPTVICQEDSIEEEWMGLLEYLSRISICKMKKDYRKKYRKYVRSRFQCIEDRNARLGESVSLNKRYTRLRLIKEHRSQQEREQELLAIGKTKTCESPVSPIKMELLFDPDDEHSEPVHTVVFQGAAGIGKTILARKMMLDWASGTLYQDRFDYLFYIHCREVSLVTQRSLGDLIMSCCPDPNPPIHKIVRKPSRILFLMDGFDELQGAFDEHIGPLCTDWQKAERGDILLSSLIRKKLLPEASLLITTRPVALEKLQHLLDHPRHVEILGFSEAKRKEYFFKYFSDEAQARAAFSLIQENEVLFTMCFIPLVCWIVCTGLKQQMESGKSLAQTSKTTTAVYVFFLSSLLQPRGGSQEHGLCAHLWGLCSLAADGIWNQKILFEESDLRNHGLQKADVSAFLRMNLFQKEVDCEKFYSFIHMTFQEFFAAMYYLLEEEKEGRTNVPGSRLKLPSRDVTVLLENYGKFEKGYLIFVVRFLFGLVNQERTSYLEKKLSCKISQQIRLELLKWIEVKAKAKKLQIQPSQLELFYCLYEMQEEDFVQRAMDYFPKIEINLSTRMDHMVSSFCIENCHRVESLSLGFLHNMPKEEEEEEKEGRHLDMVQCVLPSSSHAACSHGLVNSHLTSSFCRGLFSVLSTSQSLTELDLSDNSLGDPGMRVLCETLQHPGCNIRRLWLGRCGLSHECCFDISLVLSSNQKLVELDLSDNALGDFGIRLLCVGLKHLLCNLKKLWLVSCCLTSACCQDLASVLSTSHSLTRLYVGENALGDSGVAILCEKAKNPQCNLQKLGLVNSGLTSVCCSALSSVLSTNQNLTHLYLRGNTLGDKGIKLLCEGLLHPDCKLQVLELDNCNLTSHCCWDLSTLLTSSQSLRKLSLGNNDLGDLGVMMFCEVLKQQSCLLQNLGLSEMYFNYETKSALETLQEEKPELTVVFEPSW

| SMILES | IC50 [nM] |
| --- | --- |
| Cc1cc2c(-c3ccc(Cl)cc3OC(F)F)nnc(N[C@@H]3CCCN(C)C3)n2c1 [Compound 13, 1-[4-chloro-2-(difluoromethoxy)phenyl]-7-methyl-N-[(3R)-1-methylpiperidin-3-yl]pyrrolo[1,2-d][1,2,4]triazin-4-amine] | 1 to 10 |
| Cc1cc2c(-c3ccc(C4CC4)cc3C(F)F)nnc(N[C@@H]3CCCN(C)C3)n2c1 [Compound 14, 1-[4-cyclopropyl-2-(difluoromethyl)phenyl]-7-methyl-N-[(3R)-1-methylpiperidin-3-yl]pyrrolo[1,2-d][1,2,4]triazin-4-amine] | 1 to 10 |
| OCCN1CCC[C@@H](Nc2nnc(-c3ccc(C(F)(F)F)cc3OC(F)F)c3c(F)ccn23)C1 [Compound 15] | 1 to 10 |
| C[C@H](O)CNc1nnc(-c2ccc(C(F)(F)F)cc2OC(F)F)c2c(F)ccn12 [Compound 16, (2S)-1-({1-[2-(difluoromethoxy)-4-(trifluoromethyl)phenyl]-8-fluoropyrrolo[1,2-d][1,2,4]triazin-4-yl}amino)propan-2-ol] | 10 to 100 |
| CCN1CCC[C@@H](Nc2nnc(-c3ccc(OC)cc3C(F)(F)F)c3c(F)ccn23)C1 [Compound 17, N-[(3R)-1-ethylpiperidin-3-yl]-8-fluoro-1-[4-methoxy-2-(trifluoromethyl)phenyl]pyrrolo[1,2-d][1,2,4]triazin-4-amine] | 1 to 10 |
| COc1ccc(-c2nnc(N[C@@H]3CCCN(CCO)C3)n3ccc(F)c23)c(C(F)(F)F)c1 [Compound 18, 2-[(3R)-3-({8-fluoro-1-[4-methoxy-2-(trifluoromethyl)phenyl]pyrrolo[1,2-d][1,2,4]triazin-4-yl}amino)piperidin-1-yl]ethan-1-ol] | 1 to 10 |
| CN1CCC[C@@H](Nc2nnc(-c3ccc(C(F)(F)F)cc3F)c3cccn23)C1 [Compound 19, 1-[2-fluoro-4-(trifluoromethyl)phenyl]-N-[(3R)-1-methylpiperidin-3-yl]pyrrolo[1,2-d][1,2,4]triazin-4-amine] | 10 to 100 |
| CCN1CCC[C@@H](Nc2nnc(-c3ccc(C(F)(F)F)cc3F)c3cccn23)C1 [Compound 20, N-[(3R)-1-ethylpiperidin-3-yl]-1-[2-fluoro-4-(trifluoromethyl)phenyl]pyrrolo[1,2-d][1,2,4]triazin-4-amine] | 1 to 10 |
| OCCN1CCC[C@@H](Nc2nnc(-c3ccc(C(F)(F)F)cc3F)c3cccn23)C1 [Compound 21, 2-[(3R)-3-({1-[2-fluoro-4-(trifluoromethyl)phenyl]pyrrolo[1,2-d][1,2,4]triazin-4-yl}amino)piperidin-1-yl]ethan-1-ol] | 10 to 100 |
| CC(CO)N1CCC[C@@H](Nc2nnc(-c3ccc(C(F)(F)F)cc3OC(F)F)c3cccn23)C1 (stereo partly drawn) [Compound 22, 2-[(3R)-3-({1-[2-(difluoromethoxy)-4-(trifluoromethyl)phenyl]pyrrolo[1,2-d][1,2,4]triazin-4-yl}amino)piperidin-1-yl]propan-1-ol] | < 1 |
| Cc1ccc(-c2nnc(N[C@@H]3CCCN(C)C3)n3cc(C)cc23)c(C(F)F)c1 [Compound 23, 1-[2-(difluoromethyl)-4-methylphenyl]-7-methyl-N-[(3R)-1-methylpiperidin-3-yl]pyrrolo[1,2-d][1,2,4]triazin-4-amine] | 1 to 10 |
| Cc1cc2c(-c3ccc(C4CC4)cc3OC(F)F)nnc(N[C@@H]3CCCN(C)C3)n2c1 [Compound 24, 1-[4-cyclopropyl-2-(difluoromethoxy)phenyl]-7-methyl-N-[(3R)-1-methylpiperidin-3-yl]pyrrolo[1,2-d][1,2,4]triazin-4-amine] | < 1 |
| Cc1ccc(-c2nnc(N[C@@H]3CCCN(C)C3)n3cc(C)cc23)c(OC(F)F)c1 [Compound 25, 1-[2-(difluoromethoxy)-4-methylphenyl]-7-methyl-N-[(3R)-1-methylpiperidin-3-yl]pyrrolo[1,2-d][1,2,4]triazin-4-amine] | 1 to 10 |
| COc1ccc(-c2nnc(N[C@@H]3CCCN(C)C3)n3cccc23)c(C)c1 [Compound 26, 1-(4-methoxy-2-methylphenyl)-N-[(3R)-1-methylpiperidin-3-yl]pyrrolo[1,2-d][1,2,4]triazin-4-amine] | 10 to 100 |
